Data set [1] can be described thus: Partition coefficient (logP). Format: physicochemical. The conditions noted are these: octanol/water.
Data set [2] can be described thus: Partition coefficient (logP) (beta-cyclodextrin complex). Format: physicochemical. The conditions noted are these: octanol/water.
The nature of data set [3]: Relative hydrophobicity enhancement value obtained via beta-cyclodextrin complexation. It counts as ADME.

By logP is commonly meant the decadic logarithm of the partition coefficient of the neutral form, usually between octanol and water.

With `O=C1OCCN1S(=O)(=O)Nc1ccc(Cl)cc1`, the logP was 1.26 in data set [1] and 0.46 in data set [2]. For the same molecule, in data set [3], the “delta Log P” value is listed as 0.8.

For `CN(c1ccccc1)S(=O)(=O)N1CCOC1=O`, the results for the log partition coefficient (logP) in data set [1] and in data set [2] were 0.56 and -0.22, respectively. In data set [3], the “delta Log P” value was determined as 0.78.

As for `O=C1OCCN1S(=O)(=O)Nc1ccccc1`, the results for the logP in data set [1] and in data set [2] were 0.65 and -0.2, respectively. Further, in data set [3], the “delta Log P” value is 0.85.

Consider `Cc1ccc(NS(=O)(=O)N2CCOC2=O)cc1`, for which the logP in data set [1] amounted to 1.12; in data set [2] it was 0.1. Also, the “delta Log P” value in data set [3] worked out at 1.01.

For `O=C1OCCN1S(=O)(=O)Nc1ccc([N+](=O)[O-])cc1`, the logP in data set [1] is 0.55; in data set [2], -0.35. Moreover, the “delta Log P” value in data set [3] is recorded as 0.9.

With `COc1ccc(NS(=O)(=O)N2CCOC2=O)cc1`, the log partition coefficient (logP) is 0.77 in data set [1] and -0.17 in data set [2]. Moreover, the “delta Log P” value in data set [3] is reported as 0.94.

The values above are taken from ChEMBL document CHEMBL1141974, “Inclusion complexes of N-sulfamoyloxazolidinones with beta-cyclodextrin” (Bioorg Med Chem Lett, 2005).
